Data on 19 compounds can be found in patent US10144706B2 (BRISTOL-MYERS SQUIBB COMPANY, priority 2016, dated 2018).

Structures are written as SMILES.

In the first experiment the target is T1, PD-1/PD-L1 interaction (PD-1-Ig / PD-L1-His) (Homo sapiens, UniProt Q9NZQ7).
T1 construct: hPDL1(18-239)-TVMV-His; TVMV protease site linker (C); made in house; host or cells: HEK293T
T1 sequence (Q9NZQ7 with tags, fused parts or gaps): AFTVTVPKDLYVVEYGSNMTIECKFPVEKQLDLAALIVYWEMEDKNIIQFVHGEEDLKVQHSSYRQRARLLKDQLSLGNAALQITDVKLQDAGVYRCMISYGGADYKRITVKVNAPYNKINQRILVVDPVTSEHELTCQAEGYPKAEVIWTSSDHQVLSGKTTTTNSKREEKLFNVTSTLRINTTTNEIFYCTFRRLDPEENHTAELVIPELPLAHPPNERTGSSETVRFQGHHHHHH
Nature of the experiment: PD-1/PD-L1 Homogenous Time-Resolved Fluorescence (HTRF) binding assay. Particulars: IC50 range class; PD-L1-His 10 nM, PD-1-Ig 20 nM; read-out: Range or IC50. An outline of the steps: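 Human PD-L1-His (10 nM final) was pre-incubated with inhibitor for 15 min, then PD-1-Ig (20 nM final) was added for a further 15 min in dPBS with 0.1% BSA and 0.05% Tween-20. Binding was detected by HTRF using Eu-cryptate anti-Ig (1 nM) and APC anti-His (20 nM).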
Background: TR-FRET usually uses a lanthanide donor and a delayed reading to cut background.
For the compound `Cc1c(OCCCN(CCc2ccccn2)C[C@H](O)CO)cccc1-c1cccc(OCCCN(CCc2ccccn2)C[C@H](O)CO)c1C` [Example 2101, (2S,2′S)-3,3′-((((2,2′-dimethyl-[1,1′-biphenyl]-3,3′-diyl)bis(oxy))bis(propane-3,1-diyl))bis((2-(pyridin-2-yl)ethyl)azanediyl))bis(propane-1,2-diol)], the IC50 lay within 20.1 to 90 nM. Same read-out and setting: the value for `Cc1c(OCCCN(CCc2cccnc2)C[C@H](O)CO)cccc1-c1cccc(OCCCN(CCc2cccnc2)C[C@H](O)CO)c1C` [Example 2102, (2S,2′S)-3,3′-((((2,2′-dimethyl-[1,1′-biphenyl]-3,3′-diyl)bis(oxy))bis(propane-3,1-diyl))bis((2-(pyridin-3-yl)ethyl)azanediyl))bis(propane-1,2-diol)] was 20.1 to 90 nM; that for `Cc1c(OCCCNC[C@H](O)CO)cccc1-c1cccc(OCCCN(CCc2cccnc2)C[C@H](O)CO)c1C` [Example 2103, (S)-3-((3-((3′-(3-(((S)-2,3-dihydroxypropyl)(2-(pyridin-3-yl)ethyl)amino)propoxy)-2,2′-dimethyl-[1,1′-biphenyl]-3-yl)oxy)propyl)amino)propane-1,2-diol] was 0.04 to 20 nM. On the same count and under the same terms, the value for `Cc1c(OCCCN2CCCCC2)cccc1-c1cccc(OCCCN2CC[C@@H](O)C2)c1C` [Example 2105, (R)-1-(3-((2,2′-dimethyl-3′-(3-(piperidin-1-yl)propoxy)-[1,1′-biphenyl]-3-yl)oxy)propyl)pyrrolidin-3-ol] was 20.1 to 90 nM. On to `Cc1c(OCCCN2CCC(CO)CC2)cccc1-c1cccc(OCCCN2CC[C@@H](O)C2)c1C` [Example 2106, (R)-1-(3-((3′-(3-(4-(hydroxymethyl)piperidin-1-yl)propoxy)-2,2′-dimethyl-[1,1′-biphenyl]-3-yl)oxy)propyl)pyrrolidin-3-ol], for which the IC50 was in the range of 20.1 to 90 nM. For the compound `CC(=O)NC1CCN(CCCOc2cccc(-c3cccc(OCCCN4CC[C@@H](O)C4)c3C)c2C)C1` (stereo partly drawn) [Example 2107, N-(1-(3-((3′-(3-((R)-3-hydroxypyrrolidin-1-yl)propoxy)-2,2′-dimethyl-[1,1′-biphenyl]-3-yl)oxy)propyl)pyrrolidin-3-yl)acetamide], the IC50 is 20.1 to 90 nM. As for `Cc1c(OCCCN2CCN(c3ccccn3)CC2)cccc1-c1cccc(OCCCN2CC[C@@H](O)C2)c1C` [Example 2108, (R)-1-(3-((2,2′-dimethyl-3′-(3-(4-(pyridin-2-yl)piperazin-1-yl)propoxy)-[1,1′-biphenyl]-3-yl)oxy)propyl)pyrrolidin-3-ol], the IC50 was 90.1 to 1000 nM. With `Cc1c(OCCCN2CCN(CC(=O)NC(C)C)CC2)cccc1-c1cccc(OCCCN2CC[C@@H](O)C2)c1C` [Example 2109, (R)-2-(4-(3-((3′-(3-(3-hydroxypyrrolidin-1-yl)propoxy)-2,2′-dimethyl-[1,1′-biphenyl]-3-yl)oxy)propyl)piperazin-1-yl)-N-isopropylacetamide], the IC50 lay within 90.1 to 1000 nM. On the same count and under the same terms, the value for `Cc1c(OCCCN(C)CCc2ccccc2)cccc1-c1cccc(OCCCN2CC[C@@H](O)C2)c1C` [Example 2110, (R)-1-(3-((2,2′-dimethyl-3′-(3-(methyl(phenethyl)amino)propoxy)-[1,1′-biphenyl]-3-yl)oxy)propyl)pyrrolidin-3-ol] was 90.1 to 1000 nM; that for `COc1ccccc1N1CCN(CCCOc2cccc(-c3cccc(OCCCN4CC[C@@H](O)C4)c3C)c2C)CC1` [Example 2111, (R)-1-(3-((3′-(3-(4-(2-methoxyphenyl)piperazin-1-yl)propoxy)-2,2′-dimethyl-[1,1′-biphenyl]-3-yl)oxy)propyl)pyrrolidin-3-ol] was 20.1 to 90 nM.

As for `Cc1c(OCCCNC[C@@H](O)c2ccccc2)cccc1-c1cccc(OCCCN2CC[C@@H](O)C2)c1C` [Example 2113, (R)-1-(3-((3′-(3-(((S)-2-hydroxy-2-phenylethyl)amino)propoxy)-2,2′-dimethyl-[1,1′-biphenyl]-3-yl)oxy)propyl)pyrrolidin-3-ol], the IC50 lay in the range of 20.1 to 90 nM.

Turning to `Cc1c(OCCCN2CCC[C@@H](O)C2)cccc1-c1cccc(OCCCN2CC[C@@H](O)C2)c1C` [Example 2114, (R)-1-(3-((3′-(3-((R)-3-hydroxypyrrolidin-1-yl)propoxy)-2,2′-dimethyl-[1,1′-biphenyl]-3-yl)oxy)propyl)piperidin-3-ol], the IC50 lay in the range of 90.1 to 1000 nM. With `Cc1c(OCCCN2CC[C@@H](O)C2)cccc1-c1cccc(OCCCN2CCC[C@H](O)C2)c1C` [Example 2115, (S)-1-(3-((3′-(3-((R)-3-hydroxypyrrolidin-1-yl)propoxy)-2,2′-dimethyl-[1,1′-biphenyl]-3-yl)oxy)propyl)piperidin-3-ol], the concentration for half-maximal inhibition (IC50) lay in the range of 20.1 to 90 nM. Take `Cc1c(OCCCN[C@@H](Cc2ccccn2)C(=O)O)cccc1-c1cccc(OCCCN2CC[C@@H](O)C2)c1C` [Example 2116, (S)-2-((3-((3′-(3-((R)-3-hydroxypyrrolidin-1-yl)propoxy)-2,2′-dimethyl-[1,1′-biphenyl]-3-yl)oxy)propyl)amino)-3-(pyridin-2-yl)propanoic acid]: the IC50 lay in the range of 90.1 to 1000 nM. The same measure, in the same setting: the same measure for `Cc1c(OCCCN[C@@H](Cc2cccnc2)C(=O)O)cccc1-c1cccc(OCCCN2CC[C@@H](O)C2)c1C` [Example 2117, (S)-2-((3-((3′-(3-((R)-3-hydroxypyrrolidin-1-yl)propoxy)-2,2′-dimethyl-[1,1′-biphenyl]-3-yl)oxy)propyl)amino)-3-(pyridin-3-yl)propanoic acid]: 90.1 to 1000 nM; for `Cc1c(OCCCNCCc2ccccn2)cccc1-c1cccc(OCCCN2CC[C@@H](O)C2)c1C` [Example 2118, (R)-1-(3-((2,2′-dimethyl-3′-(3-((2-(pyridin-2-yl)ethyl)amino)propoxy)-[1,1′-biphenyl]-3-yl)oxy)propyl)pyrrolidin-3-ol]: 20.1 to 90 nM. On the same count and under the same terms, the value for `Cc1c(COc2cc(OCc3cncc(C#N)c3)c(CN3CCCC[C@H]3C(=O)O)cc2Cl)cccc1-c1cccc(COc2cc(OCc3cncc(C#N)c3)c(CN3CCCC[C@H]3C(=O)O)cc2Cl)c1C` [Example 2119, (2S,2′S)-1,1′-(((((2,2′-dimethyl-[1,1′-biphenyl]-3,3′-diyl)bis(methylene))bis(oxy))bis(5-chloro-2-((5-cyanopyridin-3-yl)methoxy)-4,1-phenylene))bis(methylene))bis(piperidine-2-carboxylic acid)] was 0.04 to 20 nM. As for `Cc1c(COc2cc(OCc3cncc(C#N)c3)c(CO)cc2Cl)cccc1-c1cccc(COc2cc(OCc3cncc(C#N)c3)c(CN3CCCC[C@H]3C(=O)O)cc2Cl)c1C` [Example 2120, (S)-1-(5-chloro-4-((3′-((2-chloro-5-((5-cyanopyridin-3-yl)methoxy)-4-(hydroxymethyl)phenoxy)methyl)-2,2′-dimethyl-[1,1′-biphenyl]-3-yl)methoxy)-2-((5-cyanopyridin-3-yl)methoxy)benzyl)piperidine-2-carboxylic acid], the IC50 lay in the range of 0.04 to 20 nM.

The same experiment, now with this note: numeric IC50; PD-L1-His 10 nM, PD-1-Ig 20 nM; read-out: Range or IC50.
`Cc1c(OCCCNC[C@H](O)c2ccccc2)cccc1-c1cccc(OCCCN2CC[C@@H](O)C2)c1C` [Example 2112, (R)-1-(3-((3′-(3-(((R)-2-hydroxy-2-phenylethyl)amino)propoxy)-2,2′-dimethyl-[1,1′-biphenyl]-3-yl)oxy)propyl)pyrrolidin-3-ol]: the IC50 is 81 nM.

Usually IC50 stands for the concentration at which inhibition is half-maximal.
